In brackets after ≈: the same amount, converted by molar mass. Where two headings read alike, the source gives them in different places.

Data on 7 compounds can be found in patent EP4345091A1, “BENZOIC ACID DERIVATIVES, METHODS AND USES THEREOF” (priority 2022, dated 2024).

Series [1] relates to Mycobacterium smegmatis homogenate. In words: Stability in Mycobacterium smegmatis homogenate (enzymatic hydrolysis). Particulars: Mycobacterium smegmatis homogenate, 37°C.
A short description of series [2]: Chemical stability in phosphate buffer pH 7.4.
Protocol: Chemical hydrolysis was evaluated in phosphate buffer at physiological pH (7.4) to determine its influence in enzymatic studies.
1176 µL pH 7.4 phosphate buffer or pH 5.9 phosphate buffer, 18 µL ACN and 6 µL of a 10-1 M stock solution of the prodrug in ACN were mixed in a 2mL vial. The solution was incubated at 37 °C and 50 µL aliquots were removed, mixed with 450 µL of ACN: H2O 1:1. The solution was analysed by HPLC, the remaining substrate and the correspondent acid were both measured.
The eluant was a mixture of acetonitrile (60%/70%) and aqueous phosphate buffer with 5% of KH2PO4/H3PO4 0.025M (40%/30%). The flow rate was always 1 mL/1 min and wavelength was set at 230 nm. All quantifications were evaluated using calibration curves from stock solutions.
The initial substrate concentration was 5 x 10^-4 M in all stability assays. All incubations were carried out at pH 7.4 and 37 °C under agitation using the phosphate buffer described above as diluting agent. […] Acetonitrile (2%) was used in all studies to ensure adequate solubilization of the substrates.
Series [3] can be described thus: Stability in human plasma (enzymatic hydrolysis).
Protocol: The studies of stability in human plasma were performed in human plasma diluted to 80% with phosphate buffer pH 7.4 of total concentration 0.05 M and ionic strength 0.15 M at 37°C. […] Study of enzymatic hydrolysis. […] Initial substrate concentration (ester) - 5×10^-4M with 2% ACN.
Pooled human plasma (960 µL), pH 7.4 phosphate buffered saline (216 µL), 18 µL ACN and 6 µL of a 10-1 M stock solution of the prodrug in ACN were mixed in a 2mL vial. The suspensions were incubated at 37 °C and 50 µL aliquots were removed, mixed with 450 µL of ACN: ZnSO4 1% 1:1 and centrifuged. The supernatant was removed and analysed by HPLC, the remaining substrate and the correspondent acid measured.
Two HPLC systems were used. The buffer and plasma stability studies were performed in an HPLC system with a photodiode detector L-3000 Photo Diode Array Detector, Merck-Hitachi L-6000 pump, Merck-Hitachi D-2500 integrator, and Merck RP-8 column. […] The eluant was a mixture of acetonitrile (60%/70%) and aqueous phosphate buffer with 5% of KH2PO4/H3PO4 0.025M (40%/30%). The flow rate was always 1 mL/1 min and wavelength was set at 230 nm. All quantifications were evaluated using calibration curves from stock solutions.
The initial substrate concentration was 5 x 10^-4 M in all stability assays. All incubations were carried out at pH 7.4 and 37 °C under agitation using the phosphate buffer described above as diluting agent. […] Acetonitrile (2%) was used in all studies to ensure adequate solubilization of the substrates. The benzoates were added from 10 to 1M acetonitrile stock solutions. After incubation, aliquots of 50 µL were taken into vials containing 450 µL of a 1:1 solution of 1% zinc sulfate and acetonitrile, mixed in a vortex and centrifuged for 10 min at 15,000 rpm. The supernatant was then injected into the HPLC and analysed for quantification of benzoic acid and remaining benzoate. All quantifications were performed using calibration curves.
Series [4] deals with Mycobacterium tuberculosis H37Rv. The series can be described thus: MIC and MBC by broth microdilution against M. tuberculosis H37Rv. The series is classed as cell-based, Mycobacterium tuberculosis H37Rv (ATCC 27294). Particulars: Mycobacterium tuberculosis, H37RV. (Broth dilution looks for growth in wells or tubes with falling amounts of substance.)
Series [5] relates to Mycobacterium Bovis BCG infecting human macrophages THP-1. The series is classed as cell-based. Particulars: concentration 0.1 µg/ml.
Setting [6] is: M. tuberculosis H37Rv, Table 3, read-out: MBC.
Where [7] appears, read: M. tuberculosis H37Rv, Tables 3, 6 and 7, read-out: MIC.

Regarding `CCCCCCCCOC(=O)c1cc([N+](=O)[O-])cc([N+](=O)[O-])c1` [Compound 3c], in series [1], the “Degradation (%) 24h” value came out at 10% and the “Degradation (%) 48h” value was found to be 19%. For the same compound, in series [2], the “Degradation (%) 24h” value came to 0%, the “Degradation (%) 48h” value was found to be 0%, the “Degradation (%) 72h” value worked out at 1% and the “Degradation (%) 168h” value is reported as 2%. The “Degradation (%) 332h” value in series [2] is listed as 3%. Also, in series [3], the “Degradation (%) 24h” value is recorded as 57%, the “Degradation (%) 48h” value is 81% and the “Degradation (%) 72h” value came to 92%. Moreover, in series [4], the MBC (as a rule, the lowest tested concentration that kills the bacteria rather than only halting them) was determined as 8 µg/mL (≈ 24.7 µM) and the MIC (in general, the lowest concentration that inhibits growth of the organism) was 8 µg/mL (≈ 24.7 µM).
On to `CCCCCCCCOC(=O)c1cc([N+](=O)[O-])cc(C(F)(F)F)c1` [Compound 4c, Octyl 3-nitro-5-(trifluoromethyl)benzoate], for which, in series [1], the “Degradation (%) 24h” value turned out to be 8% and the “Degradation (%) 48h” value is reported as 16%. Besides, in series [2], the “Degradation (%) 24h” value worked out at 0%, the “Degradation (%) 48h” value is reported as 1%, the “Degradation (%) 72h” value was 1% and the “Degradation (%) 168h” value was determined as 3%. Also, in series [2], the “Degradation (%) 332h” value worked out at 6%. Besides, in series [3], the “Degradation (%) 24h” value is recorded as 42%, the “Degradation (%) 48h” value stood at 67% and the “Degradation (%) 72h” value stood at 81%.
Consider `CCCCNC(=O)c1ccccc1` [Compound 5a, N-butyl-benzamide], for which, in series [1], the “Degradation (%) 24h” value is 2% and the “Degradation (%) 48h” value is on record as 3%. Also, in series [2], the “Degradation (%) 24h” value was 0%, the “Degradation (%) 48h” value is on record as 0%, the “Degradation (%) 72h” value was found to be 0% and the “Degradation (%) 168h” value was determined as 0%. In addition, the “Degradation (%) 332h” value in series [2] came to 0%. Besides, in series [3], the “Degradation (%) 24h” value was 0%, the “Degradation (%) 48h” value was 0% and the “Degradation (%) 72h” value was 0%. In addition, in series [4] (setting [6]), the MBC is 256 µg/mL (≈ 1440 µM). The MIC in series [4] (setting [7]) stood at 256 µg/mL (≈ 1440 µM).
Consider `CCCCCCNC(=O)c1ccccc1` [Compound 5b, N-hexyl-benzamide], for which, in series [1], the “Degradation (%) 24h” value worked out at 1% and the “Degradation (%) 48h” value amounted to 2%. The MBC in series [4] (setting [6]) stood at 64 µg/mL (≈ 312 µM). The MIC in series [4] (setting [7]) turned out to be 64 µg/mL (≈ 312 µM).
For `CCCCCCCCCCCCNC(=O)c1ccccc1` [Compound 5e, N-dodecyl-benzamide], in series [1], the “Degradation (%) 24h” value is listed as 0% and the “Degradation (%) 48h” value was 0%. For the same compound, in series [2], the “Degradation (%) 24h” value amounted to 0%, the “Degradation (%) 48h” value came out at 0%, the “Degradation (%) 72h” value turned out to be 0% and the “Degradation (%) 168h” value was determined as 0%. For the same compound, the “Degradation (%) 332h” value in series [2] is reported as 0%. Also, in series [3], the “Degradation (%) 24h” value is 0%, the “Degradation (%) 48h” value worked out at 0% and the “Degradation (%) 72h” value is recorded as 0%. Besides, the MBC in series [4] (setting [6]) was over 256 µg/mL. Also, the MIC in series [4] (setting [7]) is over 256 µg/mL.
In the case of `CCCCCCCCCCCCNC(=O)c1ccc([N+](=O)[O-])cc1` [Compound 6e, N-dodecyl-4-nitrobenzamide], in series [1], the “Degradation (%) 24h” value worked out at 2% and the “Degradation (%) 48h” value amounted to 3%. Moreover, in series [2], the “Degradation (%) 24h” value was 0%, the “Degradation (%) 48h” value was 0%, the “Degradation (%) 72h” value is 0% and the “Degradation (%) 168h” value is reported as 0%. Besides, the “Degradation (%) 332h” value in series [2] was 0%. Further, in series [3], the “Degradation (%) 24h” value worked out at 0%, the “Degradation (%) 48h” value came to 0% and the “Degradation (%) 72h” value is on record as 1%. The MBC in series [4] (setting [6]) was 256 µg/mL (≈ 765 µM). For the same compound, in series [4] (setting [7]), the MIC worked out at 256 µg/mL (≈ 765 µM).
As to `NNC(=O)c1ccncc1` [INH, isoniazid, reference compound], the “CFU x10^4” value is reported as 9.2 CFUs per mL in series [5] (Time 0 days), 9.91 CFUs per mL in series [5] (Time 1 day), 1.33 CFUs per mL in series [5] (Time 3 days) and 0.24 CFUs per mL in series [5] (Time 7 days). In addition, the MBC in series [4] (setting [6]) came to 0.05 µg/mL (≈ 0.365 µM). Also, the MIC in series [4] (setting [7]) turned out to be 0.025 µg/mL (≈ 0.182 µM).
